Here are results for 75 compounds from PubChem BioAssay AID1996.

The term kinetic solubility denotes the concentration staying in solution when a stock, usually in DMSO, is diluted into the medium.

Molecules are shown by their SMILES. In brackets after ≈: the same amount, converted by molar mass.

For the data set the following is noted: buffer; pH 7.4; 200.0 µM.
`CCc1cc(C(=O)N2CCCc3ccccc32)sc1C` had a solubility (kinetic) of 9.7 µg/mL (≈ 34 µM).

In turn, `Cc1cc(=O)oc2c(C(=O)c3ccccc3)c(OCC(N)=O)ccc12` showed a kinetic solubility of 5.6 µg/mL (≈ 16.6 µM).

As to `Cc1ccc(C(=O)Nc2sc3c(c2C(=O)O)CCC(C)C3)o1` (stereo not given), the kinetic solubility is above 47.9 µg/mL.

`Cc1ccc(-c2cn(-c3ccccc3)c(=S)[nH]2)cc1C` showed a solubility (kinetic) of 16.6 µg/mL (≈ 59.2 µM).

In the case of `CC1CCCN(C(=O)/C(=C/c2ccco2)NC(=O)c2ccccc2)C1` (stereo not given), the solubility (kinetic) was above 50.8 µg/mL.

Take `O=C(NCCN1CCOCC1)Nc1ccc(F)cc1`: the kinetic solubility is above 40.1 µg/mL.

As for `CCSc1ccc(/C(N)=N/OC(=O)c2cccs2)cn1`, the solubility (kinetic) was 0.3 µg/mL (≈ 0.976 µM).

`COc1ccccc1OCCCN1C(=O)C(=O)c2cccc(C)c21`: the kinetic solubility is 40.1 µg/mL (≈ 123 µM).

In turn, `CCc1nn(CC(=O)Nc2cc(C)ccc2C)c(=N)s1.Cl` yielded a solubility (kinetic) above 49 µg/mL.

`COc1ccc(NS(=O)(=O)c2cn(C)nc2C)cc1` gave a solubility (kinetic) above 42.2 µg/mL.

`O=C(Nc1cc(=O)[nH]c(=O)[nH]1)c1cc(Cl)ccc1Cl`: the solubility (kinetic) is above 45 µg/mL.

`C[n+]1cccc2cccc([O-])c21.O` had a solubility (kinetic) of 25.2 µg/mL.

Compound `CCN(c1ccccc1)S(=O)(=O)c1cccc(C(=O)OCC(=O)Nc2ccc(NC(C)=O)cc2)c1` had a kinetic solubility of 2.6 µg/mL (≈ 5.25 µM).

In turn, `CCN1CCCC1Cn1cnc2c([nH]c3ccc(OC)cc32)c1=O` (stereo not given) showed a kinetic solubility above 49 µg/mL.

`Oc1ccc(CN2CCN(c3ncccn3)CC2)cc1` registered a solubility (kinetic) of 34.2 µg/mL (≈ 127 µM).

`COc1ccc(OC)c(C(C)NC(=O)C23CC4CC(CC(C4)C2)C3)c1` (stereo not given) returned a solubility (kinetic) of 0.8 µg/mL (≈ 2.33 µM). Compared with the last compound, the solubility kinetic is about 43-fold lower.

For `C=CCn1c2[n+](c3ccccc3c1=O)CCCCC2.[I-]`, the solubility (kinetic) came out at 41.6 µg/mL.

For the compound `Cl.OC(CNC1CCCC1)COc1ccc(Cl)cc1` (stereo not given), the kinetic solubility is above 45.9 µg/mL.

For the compound `Cc1ccnc(NCc2ccc(Cl)cc2)c1`, the solubility (kinetic) was 3.7 µg/mL (≈ 15.9 µM).

As to `CC(C)CNC(=O)N1c2ccccc2Sc2ccccc21`, the kinetic solubility amounted to 7.1 µg/mL (≈ 23.8 µM).

`Clc1cccc(OCCCn2ccnc2)c1` came in with a solubility (kinetic) above 35.5 µg/mL.

Turning to `CCOC(=O)CNC(=O)N1c2ccccc2Sc2ccccc21`, the kinetic solubility was above 49.3 µg/mL.

As for `CCN(CC)c1ccc(C(=O)c2cnc(/N=C/N(C)C)s2)cc1`, the solubility (kinetic) came to 48.6 µg/mL (≈ 147 µM).

The compound `Cc1ccc2c(c1)C1CN(C)CCC1N2C(=S)Nc1ccc(OC(F)F)cc1` (stereo not given) returned a solubility (kinetic) of 44.8 µg/mL (≈ 111 µM). This solubility kinetic and that of the compound before are within 1.5-fold of each other.

In turn, `CC(=O)Nc1ccc(S(=O)(=O)N(C)c2ccc(OCCOc3ccccc3F)cc2)cc1` displayed a solubility (kinetic) of 6.5 µg/mL (≈ 14.2 µM).

In the case of `O=C(O)c1ccc(Cn2c(=S)[nH]c3cc(Cl)ccc3c2=O)cc1`, the kinetic solubility was above 52 µg/mL.

With `COc1ccc(-c2cc(C(=O)Nc3ccccc3F)on2)cc1`, the solubility (kinetic) is below 0.3 µg/mL.

On to `Cc1ccc(NC(=O)COC(=O)Cc2ccc(Br)cc2)cc1S(=O)(=O)N1CCOCC1`, for which the solubility (kinetic) came to 12.4 µg/mL (≈ 24.2 µM).

Turning to `O=C(COC(=O)CCC(=O)c1cccs1)NCCc1ccccc1`, the kinetic solubility was above 51.8 µg/mL.

`O=[N+]([O-])c1ccccc1S(=O)(=O)Nc1ccc(S(=O)(=O)N2CCCC2)cc1` gave a solubility (kinetic) above 61.7 µg/mL.

`NC(=O)COC(=O)c1ccccc1OCc1ccccc1`: the solubility (kinetic) was above 42.8 µg/mL.

As for `Cc1ccc(NC(=O)CCc2ccc(C)o2)cc1`, the kinetic solubility came out at 21.1 µg/mL (≈ 86.7 µM).

The compound `Nc1nc(NCC(=O)O)nc(N2CCCCCC2)c1[N+](=O)[O-]` came in with a solubility (kinetic) of 44.1 µg/mL (≈ 142 µM).

`CC(C)CNC(=O)COCc1cc(-c2ccc3c(c2)OCO3)on1`: the solubility (kinetic) is above 49.9 µg/mL.

Take `CC(C)(C)c1ccccc1NC(=O)C1=COCCO1`: the solubility (kinetic) is above 39.2 µg/mL.

In the case of `CC1CC1C(=O)N(C)CC(=O)Nc1ccccc1Br` (stereo not given), the solubility (kinetic) is above 48.8 µg/mL.

On to `CC1CCN(S(=O)(=O)c2cccc(C(=O)Nc3ccccc3)c2)CC1`, for which the solubility (kinetic) amounted to 1.3 µg/mL (≈ 3.63 µM).

In the case of `O=S(=O)(c1ccc(Cl)nc1)N1CCc2ccccc21`, the kinetic solubility was found to be 24.9 µg/mL (≈ 84.5 µM). Against the preceding compound, the solubility kinetic is about 19-fold higher.

As for `Cc1cccc2cc(/C=C/C(=O)c3ccco3)c(Cl)nc12`, the kinetic solubility came to 3.9 µg/mL (≈ 13.1 µM).

In turn, `COc1ccccc1OCC(=O)Nc1sc2c(c1C(N)=O)CCC2` showed a kinetic solubility of 4.6 µg/mL (≈ 13.3 µM).

`O=[N+]([O-])c1ccc(O)c2ncccc12` came in with a solubility (kinetic) above 28.5 µg/mL.

In turn, `COc1ccc(NS(=O)(=O)c2cc(C(=O)N3CCCCCC3)ccc2C)cc1` displayed a kinetic solubility above 60.4 µg/mL.

Regarding `CCOC(=O)c1c[nH]c(=S)n1C`, the solubility (kinetic) is above 27.9 µg/mL.

`CC(C)c1ccc(OCC(=O)NC2=NCCS2)cc1` yielded a kinetic solubility of 15.8 µg/mL (≈ 56.8 µM).

Turning to `O=C(O)CC(C(=O)Nc1ccc(Cl)cc1)N1CCCCCC1` (stereo not given), the solubility (kinetic) was above 48.7 µg/mL.

For the compound `Cl.NCCC(=O)N1c2ccccc2Sc2ccccc21`, the kinetic solubility is 29.9 µg/mL.

As to `Cc1cccc(C)c1NC(=O)COC(=O)c1cc(S(=O)(=O)Nc2ccc(Cl)cc2)ccc1O`, the kinetic solubility amounted to 11.5 µg/mL (≈ 23.5 µM).

Consider `O=C(C#Cc1ccccc1)Nc1cccc(F)c1`, for which the solubility (kinetic) came out at 8.7 µg/mL (≈ 36.4 µM).

On to `Cc1ccc(/C=C/C(=O)NCCc2cccc(Cl)c2)o1`, for which the kinetic solubility was found to be 5.1 µg/mL (≈ 17.6 µM).

`Cc1cccc(NC(=O)N2CCc3ccccc3C2)c1C` yielded a solubility (kinetic) of 6.5 µg/mL (≈ 23.2 µM). The solubility kinetic values of the last two compounds are within 1.5-fold of each other.

`O=C(NCCCl)Nc1ccccc1NS(=O)(=O)c1cccs1` yielded a solubility (kinetic) above 54 µg/mL.

Consider `Cc1c(/C=N/O)sc2ccccc12`, for which the solubility (kinetic) was determined as 10.8 µg/mL (≈ 56.5 µM).

Consider `O=C(c1ccc2ccccc2c1)N1CCCCC1`, for which the kinetic solubility was above 35.9 µg/mL.

Turning to `Cc1csc(NC(=O)c2cc3ccccc3o2)n1`, the kinetic solubility is 16 µg/mL (≈ 61.9 µM).

Regarding `COc1ccccc1C(=O)NCC(=O)NNC(=O)c1cccs1`, the kinetic solubility was above 50 µg/mL.

The compound `CCc1cc(=O)oc2cc(C)cc(OCC(=O)NC3CC3)c12` gave a kinetic solubility of 25 µg/mL (≈ 83 µM).

As for `COc1cccc(/C=N/c2nc3ccccc3n2C)c1O`, the solubility (kinetic) is 23.1 µg/mL (≈ 82.1 µM).

In turn, `CCOC(=O)C1=C(CN2CCCCCC2)NC(=O)NC1c1ccc2c(c1)OCO2` (stereo not given) yielded a solubility (kinetic) of 53.5 µg/mL (≈ 133 µM).

With `Nc1cc(=O)[nH]c(SCCSc2ccccc2)n1`, the solubility (kinetic) came out at 9.6 µg/mL (≈ 34.4 µM).

Take `O=C(COC(=O)c1ccc2ncsc2c1)Nc1ccccc1Cl`: the solubility (kinetic) worked out at 4 µg/mL (≈ 11.5 µM).

`CC1=NCCN1CCNC(=O)Nc1cc(C)cc(C)c1` yielded a kinetic solubility of 40 µg/mL (≈ 146 µM).

Compound `CCN(CC)P(c1n(C)cc[n+]1C)N(CC)CC.[I-]` had a solubility (kinetic) of 46.9 µg/mL.

Compound `COc1cccc(OCCNS(=O)(=O)c2ccccc2[N+](=O)[O-])c1` displayed a solubility (kinetic) of 47.2 µg/mL (≈ 134 µM).

`CO[C@H]1O[C@H](C)[C@@H](O)C[C@H]1NC(=O)OCc1ccccc1`: the solubility (kinetic) was above 44.3 µg/mL.

In turn, `CCCN1CCC(NC(=S)Nc2cccc(Cl)c2Cl)CC1` registered a kinetic solubility above 51.9 µg/mL.

As for `Brc1ccc(-c2noc(-c3ccccn3)n2)o1`, the solubility (kinetic) came to 10.8 µg/mL (≈ 37 µM).

For `COc1ccccc1CNC(=O)CSc1nc(C)cs1`, the kinetic solubility was above 46.3 µg/mL.

`Cc1cc(C(=O)OCC(=O)Nc2cccc(S(N)(=O)=O)c2)c(C)o1` displayed a solubility (kinetic) above 52.9 µg/mL.

The compound `CN1CCC(N(C)CC(O)c2ccccc2)CC1.O=C(O)C(=O)O` (stereo not given) came in with a solubility (kinetic) above 50.8 µg/mL.

As to `O=c1c2ccccc2nc(-c2ccccc2)n1-c1ccccc1O`, the kinetic solubility was 38.3 µg/mL (≈ 122 µM).

Take `CCOc1ccccc1NC(=O)Nc1ccc2c(c1)OCO2`: the kinetic solubility worked out at 2.8 µg/mL (≈ 9.32 µM).

The compound `CCOC(=O)c1c(-c2cccs2)csc1N` gave a solubility (kinetic) of 26.8 µg/mL (≈ 106 µM). This solubility kinetic is about 9.6-fold higher than that of the compound before.

For the compound `O=[N+]([O-])c1ccc(N2CCN(c3ccc(F)cc3)CC2)nc1`, the solubility (kinetic) came out at 0.3 µg/mL (≈ 0.992 µM).

Consider `N#C/C(=C\c1cccc([N+](=O)[O-])c1)c1ccccn1`, for which the solubility (kinetic) is 3.6 µg/mL (≈ 14.3 µM).

`CCc1ccc(NC(=O)Nc2ccc3c(c2)CCC3)cc1`: the solubility (kinetic) was below 0.3 µg/mL.
